In brackets after ≈: the same amount, converted by molar mass. Like-named read-outs stand apart in the source and are kept apart here.
Assays:
S. aureus ATCC 29213 [1] = experiment: MICs of control antibiotics for macromolecular biosynthesis assays; assay type: cell-based; details: Staphylococcus aureus, ATCC29213
[2] = tested on: protein, DNA, RNA and cell wall peptidoglycan biosynthesis in ATCC 29213; experiment: Macromolecular biosynthesis assay, incorporation of radiolabeled precursors; assay type: cell-based, Staphylococcus aureus; details: control antibiotics at approximately 4×MIC; FIG. 3A
S. aureus ATCC 29213 [3] = experiment: MIC, microdilution in CAMHB 24 h, with or without tomatidine/compound; assay type: cell-based, Staphylococcus aureus; details: for Fold (−TO/+TO): tomatidine at 8 μg/ml; for MIC: Staphylococcus aureus
S. aureus 8325-4 = experiment: MIC, microdilution in CAMHB 24 h; assay type: cell-based, Staphylococcus aureus; details: Staphylococcus aureus, 83254
S. aureus Newbould = experiment: MIC, microdilution in CAMHB 24 h; assay type: cell-based, Staphylococcus aureus; details: Staphylococcus aureus
S. aureus SHY97-3906 = experiment: MIC, microdilution in CAMHB 24 h; assay type: cell-based, Staphylococcus aureus; details: Staphylococcus aureus, SHY973906
S. aureus Newman = experiment: MIC, microdilution in CAMHB 24 h; assay type: cell-based, Staphylococcus aureus; details: Staphylococcus aureus
S. aureus MRSA COL = experiment: MIC, microdilution in CAMHB 24 h; assay type: cell-based, Staphylococcus aureus; details: Staphylococcus aureus
S. aureus Mu50 = experiment: MIC, microdilution in CAMHB 24 h; assay type: cell-based, Staphylococcus aureus; details: Staphylococcus aureus
S. aureus Sa220c = experiment: MIC, microdilution in CAMHB 24 h; assay type: cell-based, Staphylococcus aureus; details: Staphylococcus aureus, MRSA
S. aureus Sa228c = experiment: MIC, microdilution in CAMHB 24 h; assay type: cell-based, Staphylococcus aureus; details: Staphylococcus aureus, MRSA
S. aureus CF1A-L = experiment: MIC, microdilution in CAMHB 24 h; assay type: cell-based, Staphylococcus aureus; details: Staphylococcus aureus, CF1AL
S. aureus CF2A-L = experiment: MIC, microdilution in CAMHB 24 h; assay type: cell-based; details: Staphylococcus aureus, CF2AL
S. aureus CF4B-L = experiment: MIC, microdilution in CAMHB 24 h; assay type: cell-based, Staphylococcus aureus; details: Staphylococcus aureus, CF4BL
S. aureus CF6B-L = experiment: MIC, microdilution in CAMHB 24 h; assay type: cell-based, Staphylococcus aureus; details: Staphylococcus aureus, CF6BL
S. aureus CF7A-L = experiment: MIC, microdilution in CAMHB 24 h; assay type: cell-based, Staphylococcus aureus; details: Staphylococcus aureus, MRSA
S. aureus CF8E-L = experiment: MIC, microdilution in CAMHB 24 h; assay type: cell-based, Staphylococcus aureus; details: Staphylococcus aureus, CF8EL
S. aureus CF9A-L = experiment: MIC, microdilution in CAMHB 24 h; assay type: cell-based, Staphylococcus aureus; details: Staphylococcus aureus, MRSA
S. aureus CF35A-L = experiment: MIC, microdilution in CAMHB 24 h; assay type: cell-based, Staphylococcus aureus; details: Staphylococcus aureus, MRSA
S. aureus CF07-L = experiment: MIC, microdilution in CAMHB 24 h; assay type: cell-based, Staphylococcus aureus; details: Staphylococcus aureus, CF07L
S. aureus ATCC 29213 [4] = experiment: MIC, microdilution in BHI 48 h (Examples 1, 3); assay type: cell-based, Staphylococcus aureus
[5] = tested on: S. aureus Newbould (normal strain); experiment: MIC, microdilution in BHI 48 h; assay type: cell-based, Staphylococcus aureus; details: Staphylococcus aureus
[6] = tested on: S. aureus SCV NewbouldΔhemB; experiment: MIC, microdilution in BHI 48 h; assay type: cell-based, Staphylococcus aureus; details: Staphylococcus aureus
[7] = tested on: S. aureus CF07-L (normal strain); experiment: MIC, microdilution in BHI 48 h (Examples 1, 3); assay type: cell-based, Staphylococcus aureus
S. aureus SCV CF07-S = experiment: MIC, microdilution in BHI 48 h (Examples 1, 3); assay type: cell-based, Staphylococcus aureus
[8] = tested on: S. aureus CF1A-L (normal strain); experiment: MIC, microdilution in BHI 48 h; assay type: cell-based, Staphylococcus aureus; details: Staphylococcus aureus
S. aureus SCV CF1D-S = experiment: MIC, microdilution in BHI 48 h; assay type: cell-based, Staphylococcus aureus; details: Staphylococcus aureus, SCVCF1DS
S. aureus ATCC 43300 = experiment: MIC, microdilution in CAMHB 24 h; assay type: cell-based, Staphylococcus aureus; details: Staphylococcus aureus, ATCC 43300 / MRSA
S. aureus ATCC BAA-41 = experiment: MIC, microdilution in CAMHB 24 h; assay type: cell-based, Staphylococcus aureus; details: Staphylococcus aureus, ATCC BAA-41 / MRSA
S. aureus N315 = experiment: microbe, parasite or virus in culture; assay type: cell-based, Staphylococcus aureus; details: Staphylococcus aureus, MRSA
S. aureus MA078038 = experiment: MIC, microdilution in CAMHB 24 h; assay type: cell-based, Staphylococcus aureus; details: Staphylococcus aureus, MRSA

SMILES: CCn1cc(C(=O)O)c(=O)c2cc(F)c(N3CCNCC3)cc21 [Norfloxacin, norfloxacin]
- MIC (S. aureus ATCC 29213 [1]; ATCC 29213, data not shown, read-out: MIC): 1 µg/mL (≈ 3.13 µM)
- incorporation of radiolabeled precursors into the targeted macromolecules [2]: preferentially inhibited
- Fold (−TO/+TO) (S. aureus ATCC 29213 [3]; ATCC 29213): 1 fold
- MIC (S. aureus ATCC 29213 [3]; ATCC29213, ATCC 29213, Human (SSTI), read-out: MIC): 1 to 2 µg/mL (≈ 3.13 to 6.26 µM)
- MIC (S. aureus ATCC 29213 [3]; ATCC29213, ATCC 29213, absence of tomatidine, read-out: MIC −TO): 1 to 2 µg/mL (≈ 3.13 to 6.26 µM)
- MIC (S. aureus ATCC 29213 [3]; ATCC29213, ATCC 29213, presence of tomatidine at 8 μg/ml, read-out: MIC +TO): 1 to 2 µg/mL
- MIC (S. aureus 8325-4; 8325-4, Laboratory strain, read-out: MIC): 1 to 2 µg/mL (≈ 3.13 to 6.26 µM)
- MIC (S. aureus Newbould; Newbould, Cow (mastitis), read-out: MIC): 0.5 µg/mL (≈ 1.57 µM)
- MIC (S. aureus SHY97-3906; SHY97-3906, Cow (mastitis), read-out: MIC): 0.5 to 1 µg/mL (≈ 1.57 to 3.13 µM)
- MIC (S. aureus Newman; Newman, Human (Osteo), read-out: MIC): 1 µg/mL (≈ 3.13 µM)
- MIC (S. aureus MRSA COL; MRSA COL, Human (SSTI), read-out: MIC): 2 to 4 µg/mL (≈ 6.26 to 12.5 µM)
- MIC (S. aureus Mu50; Mu50, Human (SSTI), MRSA, VISA, read-out: MIC): > 64 µg/mL
- MIC (S. aureus Sa220c; Sa220c, Human (SSTI), read-out: MIC): > 64 µg/mL
- MIC (S. aureus Sa228c): > 64 µg/mL
- MIC (S. aureus CF1A-L; CF1A-L, Human (CF lungs), read-out: MIC): 1 µg/mL (≈ 3.13 µM)
- MIC (S. aureus CF2A-L; CF2A-L, Human (CF lungs), read-out: MIC): 0.5 to 1 µg/mL (≈ 1.57 to 3.13 µM)
- MIC (S. aureus CF4B-L; CF4B-L, Human (CF lungs), read-out: MIC): 1 µg/mL (≈ 3.13 µM)
- MIC (S. aureus CF6B-L; CF6B-L, Human (CF lungs), read-out: MIC): > 64 µg/mL
- MIC (S. aureus CF7A-L; CF7A-L, Human (CF lungs), read-out: MIC): > 64 µg/mL
- MIC (S. aureus CF8E-L; CF8E-L, Human (CF lungs), read-out: MIC): 4 µg/mL (≈ 12.5 µM)
- MIC (S. aureus CF9A-L; CF9A-L, Human (CF lungs), read-out: MIC): > 64 µg/mL
- MIC (S. aureus CF35A-L; CF35A-L, Human (CF lungs), read-out: MIC): > 64 µg/mL
- MIC (S. aureus CF07-L; CF07-L, Human (CF lungs), read-out: MIC): 1 to 2 µg/mL (≈ 3.13 to 6.26 µM)

SMILES: CN[C@H](CC(C)C)C(=O)N[C@H]1C(=O)N[C@@H](CC(N)=O)C(=O)N[C@H]2C(=O)N[C@H]3C(=O)N[C@H](C(=O)N[C@H](C(=O)O)c4cc(O)cc(O)c4-c4cc3ccc4O)[C@H](O)c3ccc(c(Cl)c3)Oc3cc2cc(c3O[C@@H]2O[C@H](CO)[C@@H](O)[C@H](O)[C@H]2O[C@H]2C[C@](C)(N)[C@H](O)[C@H](C)O2)Oc2ccc(cc2Cl)[C@H]1O [Vancomycin, vancomycin]
- MIC (S. aureus ATCC 29213 [4]; ATCC 29213 + HQNO at 20 μg/ml): 2 µg/mL
- MIC (S. aureus ATCC 29213 [4]; Staphylococcus aureus, ATCC29213, ATCC 29213, without HQNO): 2 µg/mL (≈ 1.38 µM)
- MIC (S. aureus ATCC 29213 [4]; Staphylococcus aureus, ATCC29213, ATCC 29213 in BHI): 2 µg/mL (≈ 1.38 µM)
- MIC (S. aureus ATCC 29213 [4]; Staphylococcus aureus, ATCC29213, ATCC 29213 in MHBCA): 1 to 2 µg/mL (≈ 0.69 to 1.38 µM)
- MIC [5]: 1 µg/mL (≈ 0.69 µM)
- MIC [6]: 2 µg/mL (≈ 1.38 µM)
- MIC ([7]; CF07-L + HQNO at 20 μg/ml): 2 µg/mL
- MIC ([7]; CF07-L, without HQNO): 2 µg/mL (≈ 1.38 µM)
- MIC ([7]; Staphylococcus aureus): 2 µg/mL (≈ 1.38 µM)
- MIC (S. aureus SCV CF07-S; CF07-S + HQNO at 20 μg/ml): 2 µg/mL
- MIC (S. aureus SCV CF07-S; CF07-S, without HQNO): 2 µg/mL (≈ 1.38 µM)
- MIC (S. aureus SCV CF07-S; Staphylococcus aureus, SCVCF07S): 2 µg/mL (≈ 1.38 µM)
- MIC [8]: 1 to 2 µg/mL (≈ 0.69 to 1.38 µM)
- MIC (S. aureus SCV CF1D-S): 2 µg/mL (≈ 1.38 µM)
- MIC (S. aureus ATCC 29213 [1]): 0.5 to 1 µg/mL (≈ 0.345 to 0.69 µM)
- incorporation of radiolabeled precursors into the targeted macromolecules [2]: preferentially inhibited
- Fold (−TO/+TO) (S. aureus ATCC 29213 [3]; ATCC 29213): 1 fold
- MIC (S. aureus ATCC 29213 [3]; ATCC29213): 1 µg/mL (≈ 0.69 µM)
- MIC (S. aureus ATCC 29213 [3]; ATCC29213, read-out: MIC −TO): 1 µg/mL (≈ 0.69 µM)
- MIC (S. aureus 8325-4): 1 µg/mL (≈ 0.69 µM)
- MIC (S. aureus Newbould): 0.5 to 1 µg/mL (≈ 0.345 to 0.69 µM)
- MIC (S. aureus SHY97-3906): 0.5 to 1 µg/mL (≈ 0.345 to 0.69 µM)
- MIC (S. aureus ATCC 43300): 0.5 to 1 µg/mL (≈ 0.345 to 0.69 µM)
- MIC (S. aureus ATCC BAA-41): 1 µg/mL (≈ 0.69 µM)
- MIC (S. aureus N315): 0.5 µg/mL (≈ 0.345 µM)
- MIC (S. aureus MA078038): 0.5 to 1 µg/mL (≈ 0.345 to 0.69 µM)
- MIC (S. aureus Newman; NEWMAN): 1 µg/mL (≈ 0.69 µM)
- MIC (S. aureus MRSA COL; MRSA): 2 µg/mL (≈ 1.38 µM)
- MIC (S. aureus Mu50; MRSA / VISA): 4 µg/mL (≈ 2.76 µM)
- MIC (S. aureus Sa220c): 1 µg/mL (≈ 0.69 µM)
- MIC (S. aureus Sa228c): 1 µg/mL (≈ 0.69 µM)
- MIC (S. aureus CF1A-L): 1 µg/mL (≈ 0.69 µM)
- MIC (S. aureus CF2A-L): 1 µg/mL (≈ 0.69 µM)
- MIC (S. aureus CF4B-L): 1 µg/mL (≈ 0.69 µM)
- MIC (S. aureus CF6B-L): 0.5 to 1 µg/mL (≈ 0.345 to 0.69 µM)
- MIC (S. aureus CF7A-L): 1 µg/mL (≈ 0.69 µM)
- MIC (S. aureus CF8E-L): 1 to 2 µg/mL (≈ 0.69 to 1.38 µM)
- MIC (S. aureus CF9A-L): 1 µg/mL (≈ 0.69 µM)
- MIC (S. aureus CF35A-L): 1 µg/mL (≈ 0.69 µM)
- MIC (S. aureus CF07-L): 1 to 2 µg/mL (≈ 0.69 to 1.38 µM)

From patent publication US9457033B2, “Steroid alkaloids and uses thereof as antimicrobial agents against electron transport-deficient microbes and as potentiators for antimicrobial agents against pathogenic bacteria” (priority 2011, dated 2016)
